Columns and labels:
[1] = Biodistribution of BMS administered as free BMS or nSSL-BMS; conditions: infected mice; for concentration at 1 h / concentration at 6 h / concentration at 24 h / concentration at 48 h: C57Bl/6 Ola-Hsd, mouse, iv, µg drug/g organ; for concentration at 1 h: 1 h post-injection; for concentration at 48 h: 48 h post-injection
Method: The total and intraliposomal (after treatment with Dowex 2X-800 anion exchanger, pH 5, which binds all free drug) concentrations of MPS or BMS and their hydrolysis products were quantified using HPLC [5]. Liposome size distribution, phospholipid concentration, drug to lipid ratio, and level of free drug (i.e. percent drug encapsulated) were determined (see Table 1) as previously described.
At 1 h, 6 h, 24 h, and 48 h post-injection, mice (n = 3 per group) were anesthetized and sacrificed for organ collection. Organs were pooled and homogenized in 5% dextrose, followed by spiking with hydrocortisone, which served as an internal standard for extraction and sample processing. The homogenates were extracted as described elsewhere. Quantification of BMS and its derivatives was performed by HPLC as described above.

[2] = tested on: PbAus-infected C57Bl/6 mice; assay: Brain hemorrhages, H&E staining; format: in vivo; conditions: treatment days 3, 5, 7, 9 p.i.
Method: H&E staining was performed by incubation of slides in Sigma's Accustain hematoxylin solution followed by staining in eosin solution (2% eosin, 1% phloxine and 0.5% acetic acid in 95% ethanol), and mounting in Hydromount (National Diagnostics, Cherry Hill, NJ, USA).

[3] = tested on: Plasmodium berghei ANKA (PbA); assay: Early treatment of experimental cerebral malaria (ECM), ICR mice infected with PbA; conditions: 10 mg/kg/d on days 3, 5, 7, 9 p.i.
Method: Plasmodium berghei ANKA (PbA; PbA MRA-311, CDC, Atlanta, GA, USA) was maintained in vivo by serial transfer of parasitized erythrocytes (PE) from infected to naïve mice. Experiments were also performed using a second strain of PbA, similarly maintained, and designated PbAus in the text (courtesy of Prof. G. Grau, University of Sydney, Australia).
Parasitemia was monitored by thin blood smears prepared from tail blood. These were stained with a 25% Giemsa solution, examined under a light microscope, and parasitemia determined as the percent of infected red blood cells per 10,000 erythrocytes. Disease severity was determined according to scoring of neurological symptoms and changes in weight and temperature, as previously described […] Parasitemias above 20% and the absence of neurological symptoms indicated severe anemic malaria.
For early ECM treatment, injections were given on days 3, 5, 7, and 9 p.i; for late treatment, treatment was given every other day, starting on day 5 p.i. for a total of at least two injections. Infected, non-treated control mice were injected with 5% dextrose or empty nSSL. Clinical signs and parasitemias were monitored and disease severity scored as described […] Surviving mice were treated with 2×10 mg/kg/d artemisone by intraperitoneal injection in order to achieve cure; mice were monitored for four weeks post-artemisone treatment in order to allow detection of possible late recrudescence. […] At each time-point, at least 3 mice from each group were chosen at random, deeply anesthetized, and brains were removed following intracardial perfusion (using saline, if organs were destined for real-time (rt)PCR analysis, or saline/formalin, if organs were destined for histopathological analysis). Organs destined for rtPCR analysis were snap-frozen in liquid nitrogen and stored at −80°C until use. Organs destined for immunohistology were immediately immersed in cryoprotectant solution (see below).

astrocytes = assay: Astrocyte activation, GFAP immunohistology; format: in vivo, C57Bl/6 mice; conditions: for Astrocytes, normalized IOD: GFAP, normalized to non-infected mice
Method: (§1) Sections were thaw-mounted onto on poly-L-lysine-coated slides and stored at -80°C until use.
(§2) Slides were thawed by sequential incubation at −20°C and 5°C (10 minutes at each temperature) and incubated in blocking solution consisting of 20% of 5% BSA and 80% of 5% NGS, in a moist environment at room temperature (RT). After one hour the blocking solution was removed and sections incubated overnight at 5°C with primary antibody diluted 1∶200 in blocking solution. Microglia were stained using rabbit anti-mouse ionized calcium binding adaptor molecule 1 (IBA-1) (Wako Chemicals, Richmond, VA, USA); astrocytes were stained using rabbit anti-bovine glial fibrillary acidic protein (GFAP) (cross-reactive to mouse; LifeSpan Biosciences, Seattle, WA, USA). After washing in PBS, slides were incubated for one hour at RT with secondary antibody, Cy3-AffiniPure donkey anti-rabbit IgG H+L (diluted 1∶200 in PBS; Jackson Immunoresearch Laboratories, West Grove, PA, USA), followed by an additional wash. After addition of 4′,6-diamidino-2-phenylindole (DAPI) in mounting solution (Dapi-Fluoromount-G, Southern Biotech, Birmingham, AL, USA) the slides were mounted with coverslips and examined by fluorescent microscopy. At least three sections per brain (6 fields each) were examined, and the total number of astrocytes and microglia counted. High-resolution images of stained slides were photographed using a laser confocal scanning microscope. Images were visualized and analyzed with ImagePro analysis software: quantification of relative fluorescence was performed using the integrated optical density (IOD) parameter. IOD values of infected non-treated or treated mice were normalized to non-infected mouse values.

[4] = tested on: PbAus-infected C57Bl/6 mice; assay: Brain edema, Evans blue dye extravasation; format: in vivo; conditions: treatment days 3, 5, 7, 9 p.i.
Method: BBB disruption was assessed by quantifying Evans blue dye extravasation. 200 µl 2% (w/v) Evan's blue solution in PBS was injected i.v. to pre-warmed mice. After 2 h mice were anesthetized and perfused intracardially with ice-cold PBS. Brains were extracted, homogenized in 1 ml PBS, and centrifuged; the supernatant was read by spectrophotometry at 510 nm. Values were normalized to the values from the brains of non-infected mice similarly injected.

microglia = assay: Microglial activation, IBA-1 immunohistology; format: in vivo, C57Bl/6 mice; conditions: IBA-1, normalized to non-infected mice
Method: as §1
as §2, with “After addition of 4′,6-diamidino-2-phenylindole (DAPI) in mounting solution (Dapi-Fluoromount-G, Southern Biotech, Birmingham, AL, USA) the slides were mounted with coverslips and examined by fluorescent microscopy.” left out, “High-resolution images of stained slides were photographed using a laser confocal scanning microscope.” left out, “IOD values of infected non-treated or treated mice were normalized to non-infected mouse values.” left out

[5] = brain, 20 mg/kg, BMS in brain, 20 mg/kg i.v. on day 6 p.i.
[6] = heart, 20 mg/kg, BMS in heart, 20 mg/kg i.v. on day 6 p.i.
[7] = liver, 20 mg/kg, BMS in liver, 20 mg/kg i.v. on day 6 p.i.
[8] = lungs, 20 mg/kg, BMS in lungs, 20 mg/kg i.v. on day 6 p.i.

With `C[C@H]1C[C@H]2[C@@H]3CCC4=CC(=O)C=C[C@]4(C)[C@@]3(F)[C@@H](O)C[C@]2(C)[C@@]1(O)C(=O)COC(=O)CCC(=O)O` [BMS, β-methasone hemisuccinate] the concentration at 1 h [1, 5] was 400 ng/g, the concentration at 6 h ([1]; brain, 20 mg/kg, BMS in brain, 20 mg/kg i.v. on day 6 p.i., 6 h post-injection) was 100 ng/g and the concentration at 24 h ([1]; brain, 20 mg/kg, BMS in brain, 20 mg/kg i.v. on day 6 p.i., 24 h post-injection) was 100 ng/g. For the same compound, the concentration at 48 h [1, 5] was 100 ng/g, the concentration at 1 h [1, 6] was 2900 ng/g and the concentration at 6 h ([1]; heart, 20 mg/kg, BMS in heart, 20 mg/kg i.v. on day 6 p.i., 6 h post-injection) was 2400 ng/g. For the same compound, the concentration at 24 h ([1]; heart, 20 mg/kg, BMS in heart, 20 mg/kg i.v. on day 6 p.i., 24 h post-injection) was about 3000 ng/g, the concentration at 48 h [1, 6] was 3300 ng/g and the concentration at 1 h [1, 7] was 2400 ng/g. It also gave a concentration at 6 h ([1]; liver, 20 mg/kg, BMS in liver, 20 mg/kg i.v. on day 6 p.i., 6 h post-injection) of 3400 ng/g, a concentration at 24 h ([1]; liver, 20 mg/kg, BMS in liver, 20 mg/kg i.v. on day 6 p.i., 24 h post-injection) of 400 ng/g and a concentration at 48 h [1, 7] of 400 ng/g. For the same compound, the concentration at 1 h [1, 8] was 1600 ng/g, the concentration at 6 h ([1]; lungs, 20 mg/kg, BMS in lungs, 20 mg/kg i.v. on day 6 p.i., 6 h post-injection) was 2400 ng/g and the concentration at 24 h ([1]; lungs, 20 mg/kg, BMS in lungs, 20 mg/kg i.v. on day 6 p.i., 24 h post-injection) was 2000 ng/g. For the same compound, the concentration at 48 h [1, 8] was 2000 ng/g, the “BMS in lungs, µg drug/g organ” value ([1]; 20 mg/kg i.v. on day 6 p.i., 24 h post-injection, listed as Free BMS, 20 mg/kg) was 1.9 µg drug/g organ and the “Brain to liver BMS concentration ratio” value ([1]; 6 h post-injection) was 0.03. The Number of hemorrhages ([2]; day 5 p.i.) was 9±1, the Number of hemorrhages ([2]; day 9 p.i.) was 9±2 and the “ECM rate (incidence of CM)” value [3] was 67%. The “Astrocytes, normalized IOD” value (astrocytes; day 5 p.i.) was 1.7±0.9, the “Astrocytes, normalized IOD” value (astrocytes; day 9 p.i.) was 1.1±0.1 and the “Astrocyte number of primary processes” value (astrocytes; day 9 p.i., n = 23, 18 cells) was 10±2. The “Edema, ng Evan's blue/brain” value ([4]; day 5 p.i.) was 263±95 ng Evan's blue/brain, the “Edema, ng Evan's blue/brain” value ([4]; day 9 p.i.) was 263±6 ng Evan's blue/brain and the “Microglia, normalized IOD” value (microglia; day 5 p.i.) was 12±1. The “Microglia, normalized IOD” value (microglia; day 9 p.i.) was 10±0.05.
